Experimental data: patent publication EP4806894A1, “TNAP INHIBITORY COMPOUND AND USE THEREOF” (Rednvia Co., Ltd., priority 2023, dated 2025)
Structures can show the parent of a compound that is named as a salt.

Key:
TNAP = target: T1, TNAP (Homo sapiens, UniProt P05186); experiment: TNAP inhibitory activity, colorimetric assay (alkaline phosphatase assay kit ab83369, pNPP substrate); assay type: biochemical; settings: TNAP enzyme, 2 hours at room temperature, absorbance 405 nm
T1 sequence (P05186 18-502 limits assumed): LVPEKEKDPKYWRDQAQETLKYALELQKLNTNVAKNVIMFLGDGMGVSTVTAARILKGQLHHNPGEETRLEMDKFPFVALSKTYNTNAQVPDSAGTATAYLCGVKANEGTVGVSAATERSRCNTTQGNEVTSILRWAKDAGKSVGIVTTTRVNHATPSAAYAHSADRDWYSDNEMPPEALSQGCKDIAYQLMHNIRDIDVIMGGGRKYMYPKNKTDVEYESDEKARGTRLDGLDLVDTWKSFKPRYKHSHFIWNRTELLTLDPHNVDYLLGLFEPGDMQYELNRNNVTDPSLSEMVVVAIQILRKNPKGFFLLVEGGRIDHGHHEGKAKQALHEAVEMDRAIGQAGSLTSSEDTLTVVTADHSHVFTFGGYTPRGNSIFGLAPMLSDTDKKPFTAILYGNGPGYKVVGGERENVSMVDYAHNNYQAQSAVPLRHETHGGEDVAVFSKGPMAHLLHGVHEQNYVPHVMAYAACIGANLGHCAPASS

saos-2 cells = experiment: Anticalcification efficacy in saos-2 cells (osteogenic medium, Alizarin Red staining); assay type: cell-based; settings: test compound 1 µM, 7 days osteogenic medium, Alizarin Red absorbance 540 nm; for inhibition at 1 µM: Homo sapiens, 168 h, read-out: calcification inhibition
Outline: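 Saos-2 cells at 80–90% confluence induced for 7 days in osteogenic medium (DMEM, 100 nM dexamethasone, 10 mM β-glycerophosphate, 0.05 mM ascorbic acid), compound (0.5, 1, 5, 10 […]) added with each medium change. Alizarin Red staining eluted with cetylpyridinium chloride, A540 read; inhibition taken against OM-only absorbance.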

Row | Compound | IC50 (TNAP) [nM] | inhibition at 1 µM (saos-2 cells) [%] | calcification inhibition (saos-2 cells)
1 | NCc1ccc(-c2cc(F)cc(F)c2S(=O)(=O)Nc2cnc3c(c2)C(=O)NCC3)cc1 [Example 40, 4'-(aminomethyl)-3,5-difluoro-N-(5-oxo-5,6,7,8-tetrahydro-1,6-naphthyridine-3-yl)-[1,1'-biphenyl]-2-sulfonamide hydrochloride] | ≥ 1000 | < 0 | 
2 | CNC(=O)N1CCc2ncc(NS(=O)(=O)c3cc(Br)ccc3OC)cc2C1 [Example 111, 3-((5-bromo-2-methoxyphenyl)sulfonamido)-N-methyl-7,8-dihydro-1,6-naphthyridine-6(5H)-carboxamide] | 10 to 100 | ≥ 50 | 
3 | COc1ccc(F)cc1S(=O)(=O)Nc1cnc2c(c1)C(=O)NCCC2 [Example 15, 5-fluoro-2-methoxy-N-(5-oxo-6,7,8,9-tetrahydro-5H-pyrido[3,2-c]azepine-3-yl)benzenesulfonamide] | 100 to 1000 | ≥ 50 | 
4 | O=C1NCc2ncc(NS(=O)(=O)c3cc(Cl)cc4c3OCC4)cc21 [Example 20, 5-chloro-N-(5-oxo-6,7-dihydro-5H-pyrrolo[3,4-b]pyridine-3-yl)-2,3-dihydrobenzofuran-7-sulfonamide] | ≥ 1000 | < 0 | 
5 | O=C1NCCc2ncc(NS(=O)(=O)c3cc(-c4ccc(C5(C(=O)O)CC5)cc4)cc4c3OCC4)cc21 [Example 38, 1-(4-(7-(N-(5-oxo-5,6,7,8-tetrahydro-1,6-naphthyridine-3-yl)sulfamoyl)-2,3-dihydrobenzofuran-5-yl)phenyl)cyclopropane-1-carboxylic acid] | ≥ 1000 | < 0 | 
6 | COc1ccc(OC)c(S(=O)(=O)Nc2cnc3c(c2)CN(C(=O)OCCF)CC3)c1 [Example 103, 2-fluoroethyl-3-((5-methoxy-2-methoxyphenyl)sulfonamido)-7,8-dihydro-1,6-naphthyridine-6(5H)-carboxylate] | 10 to 100 | ≥ 50 | 
7 | COc1ccc(-c2c(C)nn(C)c2C)cc1S(=O)(=O)Nc1cnc2c(c1)C(=O)NCC2 [Example 121, 2-methoxy-N-(5-oxo-5,6,7,8-tetrahydro-1,6-naphthyridine-3-yl)-5-(1,3,5-trimethyl-1H-pyrazole-4-yl)benzenesulfonamide] | 100 to 1000 | < 0 | 
8 | COc1ccc(Cl)cc1S(=O)(=O)Nc1cnc2c(c1)CN(C(=O)CC(C)(C)C)CC2 [Example 118, 5-chloro-N-(6-(3,3-dimethylbutanoyl)-5,6,7,8-tetrahydro-1,6-naphthyridine-3-yl)-2-methoxybenzenesulfonamide] | 10 to 100 | ≥ 50 | 
9 | 2-methoxy-N-(5-oxo-5,6,7,8-tetrahydro-1,6-naphthyridine-3-yl)benzenesulfonamide [Example 26] | 10 to 100 |  | A (inhibition of 50% or more was expressed as "A")
10 | O=C1NCCc2ncc(NS(=O)(=O)c3cc(Cl)cc4c3OCC4)cc21 [Example 22, 5-chloro-N-(5-oxo-5,6,7,8-tetrahydro-1,6-naphthyridine-3-yl)-2,3-dihydrobenzofuran-7-sulfonamide] | 100 to 1000 | ≥ 50 | 
11 | O=S(=O)(Nc1cnc2c(c1)CNCC2)c1cc(F)ccc1Br [Example 91, 5-fluoro-2-bromo-N-(5,6,7,8-tetrahydro-1,6-naphthyridine-3-yl)benzenesulfonamide hydrochloride] | ≥ 1000 | < 0 | 
12 | COc1ccc(C2=CCC(F)(F)CC2)cc1S(=O)(=O)Nc1cnc2c(c1)C(=O)NCC2 [Example 64, 4',4'-difluoro-4-methoxy-N-(5-oxo-5,6,7,8-tetrahydro-1,6-naphthyridine-3-yl)-2',3',4',5'-tetrahydro-[1,1'-biphenyl]-3-sulfonamide] | ≥ 1000 | < 0 | 
13 | COc1ccc(Cl)cc1S(=O)(=O)Nc1cnc2c(c1)CN(c1ncccn1)CC2 [Example 114, 3-5-chloro-2-methoxy-N-(6-(pyrimidine-2-yl)-5,6,7,8-tetrahydro-1,6-naphthyridine-3-yl)benzenesulfonamide] | 10 to 100 | ≥ 50 | 
14 | COc1ccc(Cl)cc1S(=O)(=O)Nc1cnc2c(c1)CN(C(=O)NC(C)C)CC2 [Example 104, 3-((5-chloro-2-methoxyphenyl)sulfonamido)-N-isopropyl-7,8-dihydro-1,6-naphthyridine-6(5H)-carboxamide] | 10 to 100 | ≥ 50 | 
15 | COc1ccc(Cl)cc1S(=O)(=O)Nc1cnc2c(c1)CN(C(=O)NCC(F)F)CC2 [Example 107, 3-((5-chloro-2-methoxyphenyl)sulfonamido)-N-(2,2-difluoroethyl)-7,8-dihydro-1,6-naphthyridine-6(5H)-carboxamide] | 10 to 100 | ≥ 50 | 
16 | CCOC(=O)CCc1ccc(-c2ccc(OC)c(S(=O)(=O)Nc3cnc4c(c3)C(=O)NCC4)c2)cc1 [Example 49, ethyl 3-(4'-methoxy-3'-(N-(5-oxo-5,6,7,8-tetrahydro-1,6-naphthyridine-3-yl)sulfamoyl)-[1,1'-biphenyl]-4-yl)propanoate] | 10 to 100 | ≥ 50 | 

Continued, in another order:

Row | IC50 (TNAP) [nM] | Compound | inhibition at 1 µM (saos-2 cells) [%] | calcification inhibition (saos-2 cells)
17 | 10 to 100 | COc1ccc(-c2cnn(CC(=O)O)c2)cc1S(=O)(=O)Nc1cnc2c(c1)C(=O)NCC2 [Example 48, 2-(4-(4-methoxy-3-(N-(5-oxo-5,6,7,8-tetrahydro-1,6-naphthyridine-3-yl)sulfamoyl)phenyl)-1H-pyrazole-1-yl)acetic acid] | ≥ 50 | 
18 | ≥ 1000 | COc1ccc(-c2cnn(C(C)(C)C(N)=O)c2)cc1S(=O)(=O)Nc1cnc2c(c1)C(=O)NCC2 [Example 58, 2-(4-(4-methoxy-3-(N-(5-oxo-5,6,7,8-tetrahydro-1,6-naphthyridine-3-yl)sulfamoyl)phenyl)-1H-pyrazole-1-yl)-2-methylpropanamide] | 0 to 50 | 
19 | 100 to 1000 | COc1ccc(-c2cnn(C(C)c3nc(C(C)C)no3)c2)cc1S(=O)(=O)Nc1cnc2c(c1)C(=O)NCC2 (stereo not drawn) [Example 69, 5-(1-(1-(3-isopropyl-1,2,4-oxadiazole-5-yl)ethyl)-1H-pyrazole-4-yl)-2-methoxy-N-(5-oxo-5,6,7,8-tetrahydro-1,6-naphthyridine-3-yl)benzenesulfonamide] | < 0 | 
20 | 10 to 100 | CCCCn1cc(-c2ccc(OC)c(S(=O)(=O)Nc3cnc4c(c3)C(=O)NCC4)c2)cn1 [Example 123, 5-(1-butyl-1H-pyrazole-4-yl)-2-methoxy-N-(5-oxo-5,6,7,8-tetrahydro-1,6-naphthyridine-3-yl)benzenesulfonamide] | ≥ 50 | 
21 | 100 to 1000 | COc1ccc(-c2ccc(C(=O)O)cc2)cc1S(=O)(=O)Nc1cnc2c(c1)C(=O)NCC2 [Example 34, 4'-methoxy-3'-(N-(5-oxo-5,6,7,8-tetrahydro-1,6-naphthyridine-3-yl)sulfamoyl)-[1,1'-biphenyl]-4-carboxylic acid] | ≥ 50 | 
22 | ≥ 1000 | CCNC(=O)Cn1cc(-c2ccc(OC)c(S(=O)(=O)Nc3cnc4c(c3)C(=O)NCC4)c2)cn1 [Example 66, N-ethyl-2-(4-(4-methoxy-3-(N-(5-oxo-5,6,7,8-tetrahydro-1,6-naphthyridine-3-yl)sulfamoyl)phenyl)-1H-pyrazole-1-yl)acetamide] | < 0 | 
23 | ≥ 1000 | COc1ccc(-c2ccc(OC)c(S(=O)(=O)Nc3cnc4c(c3)C(=O)NCC4)c2)cc1 [Example 30, 4,4'-dimethoxy-N-(5-oxo-5,6,7,8-tetrahydro-1,6-naphthyridine-3-yl)-[1,1'-biphenyl]-3-sulfonamide] | 0 to 50 | 
24 | 10 to 100 | COc1ccc(-c2ccc(CC(=O)O)cc2)cc1S(=O)(=O)Nc1cnc2c(c1)C(=O)NCC2 [Example 33, 2-(4'-methoxy-3'-(N-(5-oxo-5,6,7,8-tetrahydro-1,6-naphthyridine-3-yl)sulfamoyl)-[1,1'-biphenyl]-4-yl)acetic acid] | ≥ 50 | 
25 | 100 to 1000 | COc1ccc(-c2cnn(-c3ccncc3)c2)cc1S(=O)(=O)Nc1cnc2c(c1)C(=O)NCC2 [Example 120, 2-methoxy-N-(5-oxo-5,6,7,8-tetrahydro-1,6-naphthyridine-3-yl)-5-(1-(pyridine-4-yl)-1H-pyrazole-4-yl)benzenesulfonamide] | < 0 | 
26 | 100 to 1000 | COc1ccc(-c2cnn(C3CCOCC3)c2)cc1S(=O)(=O)Nc1cnc2c(c1)C(=O)NCC2 [Example 76, 2-methoxy-N-(5-oxo-5,6,7,8-tetrahydro-1,6-naphthyridine-3-yl)-5-(1-(tetrahydro-2H-pyran-4-yl)-1H-pyrazole-4-yl)benzenesulfonamide] | ≥ 50 | 
27 | 100 to 1000 | COc1ccc(-c2cnc(N)nc2)cc1S(=O)(=O)Nc1cnc2c(c1)C(=O)NCC2 [Example 44, 5-(2-aminopyrimidine-5-yl)-2-methoxy-N-(5-oxo-5,6,7,8-tetrahydro-1,6-naphthyridine-3-yl)benzenesulfonamide] | ≥ 50 | 
